In patent US20030027835A1 (priority 1999, published 2003):
Structures can show the parent of a compound that is named as a salt.

Key:
[1] = system: PGE2-induced hyperalgesia; assay: PGE2-induced hyperalgesia in the rat (Randall and Selitto test)
[2] = system: sodium currents in rat dorsal root ganglia (DRG) neurons; type: cell-based
rabbit corneal reflex = assay: corneal reflex testing in rabbits (local anesthetic effect); type: in vivo
Excerpt: FIG. 4: Local anesthetic effect of TMB (A) and lidocaine (B) as determined in the rabbit corneal reflex. The values represent the median of percentage of inhibition of corneal reflex calculated for each set of 10 stimulations. The x axis represents time (in minutes) following instillations.*P<0.05; **P<0.01 compared with the control group treated with the vehicle (Mann-Whitney U test).
White New-Zealand male rabbits (CEGAV, Les Hauts Noës, Saint Mars d'Egrenne, France) weighing 1.9-2.7 kg were used. Animals were housed individually in cages placed in an air-conditioned (17-21° C.) animal house kept between 45% and 65% relative humidity and with an artificial day/night cycle (12 h-12 h) with light on at 7.30 am.
Test substances are administered as solutions in sterile water (Baxter, Maurepas, France). The concentrations of test substances are expressed as percentage (weight/volume) of active compound (base form). Each test substance at each concentration is tested on the two eyes of 5 animals (i.e. 10 measurements per substance and per concentration). On the day of the study, animals are placed in restraint cages in a quiet room. Twenty to 30 minutes later, a first measurement of the corneal sensitivity is performed. Any animal presenting a partial or complete corneal insensitivity or any ocular lesion before administration is excluded from the study. Immediately after the first measurement, 2×50 μl of test substances or their vehicle are applied to the cornea. The two instillations were undertaken on each eye at a one-minute interval. Corneal sensitivity is subsequently measured at 5, 10, 20, 30, 40, 50 and 60 minutes following the instillations, and then at 2, 3 and 4 hours after the instillations. Corneal sensitivity is measured by touching gently the center of the cornea with a loop-shape nylon yarn (0.3 mm diameter). For each measurement, this operation is repeated 10 times at regular 2 second intervals. The number of stimulations producing a corneal reflex is noted for each set and for each eye.
Results are expressed as percentage of inhibition of the corneal reflex calculated for each set of 10 stimulations:
% inhibition of corneal reflex=10-(number of stimulations inducing a corneal reflex)×10
For each experimental group, median values are determined. The effects of test compounds are compared with those of the vehicle using a Mann-Withney non-parametric U test at each time of measurement. Areas under curves are calculated over the first 60-minute period following instillation for each animal and each concentration by the trapezoidal method of Bourget et al., 1993. The relative potency of TMB) is compared to that of lidocaine hydrochloride from respective mean areas under curves using a covariance analysis.

## CCC(COC(=O)c1cc(OC)c(OC)c(OC)c1)(c1ccccc1)N(C)C.O=C(O)/C=C\C(=O)O (racemic) [Trimebutine, 2-dimethylamino-2-phenylbutyl 3,4,5-trimethoxybenzoate hydrogen maleate]
[1]; Trimebutine 100 mg/kg s.c. (T2 of FIG. 5)
  % of analgesic activity: 27%
[2]
  blocking rate kon: 35-40 10^−3 s^−1 μM^−1
Rabbit corneal reflex; 0.1% concentration
  duration of local anesthetic effect: 20 min
Rabbit corneal reflex; comparison of areas under the curve over first 60 min
  potency relative to lidocaine: 17 fold
Rabbit corneal reflex; instillation of 0.3% or 1%
  duration of complete local anesthesia: more than 60 min
Rabbit corneal reflex; rabbit cornea, instillation
  concentration giving first significant local anesthetic effects: 0.1%

## CN1CC[C@]23c4c5ccc(O)c4O[C@H]2[C@@H](O)C=C[C@H]3[C@H]1C5 [Morphine, morphine]
[1]; Morphine 0.3 mg/kg s.c., 30 min before test (T1 of FIG. 5)
  % of analgesic activity: 22%
[1]; Morphine 3 mg/kg s.c. (M3 of FIG. 6)
  % of analgesic activity: 64%

## CCN(CC)CC(=O)Nc1c(C)cccc1C [lidocaine, lidocaine hydrochloride]
Rabbit corneal reflex; 6% concentration
  duration of complete local anesthetic effect: 25 min
Rabbit corneal reflex; 6% concentration, 60 min after instillation
  inhibition of corneal reflex: no more inhibition
Rabbit corneal reflex; up to the concentration of 0.3%
  local anesthetic activity: inactive
